Measurements published in ChEMBL document CHEMBL3108760, “Epigallocatechin 3-O-gallate induces 67 kDa laminin receptor-mediated cell death accompanied by downregulation of ErbB proteins and altered lipid raft clustering in mammary and epidermoid carcinoma cells” (J Nat Prod, 2014).
Active and inactive are the calls of the source. The calls are words filed in the database; no cut-off is given here.

Key:
[1] = Downregulation of ErbB2 protein expression in human SKBR3 cells at 50 uM after 24 hrs by immunofluorescence staining-based flow cytometric analysis in presence of serum; format: functional, cell-based; conditions: SK-BR-3
A-431 [2] = assay: Antiproliferative activity against human A431 cells overexpressing ErbB in complete medium assessed as cell viability after 48 hrs by WST-1 assay; format: functional, cell-based; conditions: A-431, 48 h
A-431 [3] = assay: Downregulation of ErbB1 protein expression in human A431 cells in serum free medium at 50 uM after 24 hrs by immunofluorescence staining-based flow cytometric analysis; format: functional
A-431 [4] = assay: Ratio of EC50 for human A431 cells overexpressing ErbB in complete medium to EC50 for human A431 cells overexpressing ErbB in serum-free medium; format: functional
A-431 [5] = assay: Downregulation of ErbB1 protein expression in human A431 cells in serum free medium at 200 uM after 30 mins by immunofluorescence staining-based confocal microscopic analysis; format: functional, cell-based
A-431 [6] = assay: Antiproliferative activity against human A431 cells overexpressing ErbB in serum-free medium assessed as cell viability after 48 hrs by WST-1 assay; format: functional, cell-based; conditions: A-431, 48 h
[7] = Antiproliferative activity against human SKBR3 cells overexpressing ErbB in complete medium assessed as cell viability after 48 hrs by WST-1 assay; format: functional, cell-based; conditions: SK-BR-3, 48 h
[8] = Antiproliferative activity against human SKBR3 cells overexpressing ErbB in serum-free medium assessed as cell viability after 48 hrs by WST-1 assay; format: functional, cell-based; conditions: SK-BR-3, 48 h
A-431 [9] = assay: Induction of apoptosis in human A431 cells overexpressing ErbB in complete medium assessed as late apoptotic/necrotic cells at 75 uM after 72 hrs by annexin V-FITC/7-AAD staining-based flow cytometric analysis relative to control; format: functional
[10] = molecular target: Small ribosomal subunit protein uS2 (Homo sapiens) (UniProt P08865); assay: Inhibition of 67LR co-localization in lipid rafts containing cholera toxin labeled GM1 gangliosides in human A431 cells after 30 mins by immunofluorescence-based confocal microscopic analysis (reference value: 75%); format: cell-based; conditions: A-431
[11] = molecular target: Receptor tyrosine-protein kinase erbB-2 (Homo sapiens) (UniProt P04626); assay: Induction of ErbB2 internalization in lysosome/endosome of human A431 cells in serum free medium at 200 uM after 30 mins by immunofluorescence staining-based confocal microscopic analysis; format: cell-based; conditions: A-431
[12] = molecular target: Receptor tyrosine-protein kinase erbB-2 (Homo sapiens) (UniProt P04626); assay: Induction of ErbB2 internalization in lysosome/endosome of human SKBR3 cells in serum free medium at 200 uM after 30 mins by immunofluorescence staining-based confocal microscopic analysis; format: cell-based; conditions: SK-BR-3
[13] = Downregulation of ErbB2 protein expression in human SKBR3 cells in serum free medium at 50 uM after 24 hrs by immunofluorescence staining-based flow cytometric analysis; format: functional, cell-based; conditions: SK-BR-3
SK-BR-3 [14] = assay: Reduction of clustering of GFP-GPI in lipid rafts of human SKBR3 cells at 100 uM after 12 hrs by confocal microscopic analysis; format: functional, cell-based
A-431 [15] = assay: Cell cycle arrest in human A431 cells at 50 to 75 uM after 36 hrs by propidium iodide staining-based flow cytometric analysis; format: functional
SK-BR-3 [16] = assay: Induction of apoptosis in human SKBR3 cells overexpressing ErbB in complete medium assessed as late apoptotic/necrotic cells at 75 uM after 72 hrs by annexin V-FITC/7-AAD staining-based flow cytometric analysis relative to control; format: functional
[17] = Cell cycle arrest in human SKBR3 cells at 50 to 75 uM after 36 hrs by propidium iodide staining-based flow cytometric analysis; format: functional; conditions: SK-BR-3
[18] = Downregulation of ErbB2 protein expression in human SKBR3 cells in serum free medium at 200 uM after 30 mins by immunofluorescence staining-based confocal microscopic analysis; format: functional, cell-based; conditions: SK-BR-3
A-431 [19] = assay: Antiproliferative activity against anti-67LR treated human A431 cells overexpressing ErbB assessed as cell viability at 100 to 200 uM after 24 hrs by WST-1 staining-based spectrophotometric analysis; format: functional
A-431 [20] = assay: Reduction of clustering of GFP-GPI in lipid rafts of human A431 cells at 100 uM after 12 hrs by confocal microscopic analysis; format: functional, cell-based
A-431 [21] = assay: Downregulation of ErbB1 protein expression in human A431 cells at 50 uM after 24 hrs by immunofluorescence staining-based flow cytometric analysis in presence of serum; format: functional, cell-based
SK-BR-3 [22] = assay: Ratio of EC50 for human SKBR3 cells overexpressing ErbB in complete medium to EC50 for human SKBR3 cells overexpressing ErbB in serum-free medium; format: functional
A-431 [23] = assay: Cell cycle arrest in human A431 cells assessed as decrease in accumulation at G0/G1 phase at 50 to 75 uM after 36 hrs by propidium iodide staining-based flow cytometric analysis; format: functional
A-431 [24] = assay: Cell cycle arrest in human A431 cells assessed as accumulation at G2/M phase at 50 to 75 uM after 36 hrs by propidium iodide staining-based flow cytometric analysis relative to control; format: functional
A-431 [25] = assay: Induction of apoptosis in human A431 cells overexpressing ErbB in complete medium assessed as late apoptotic/necrotic cells at 50 to 75 uM after 72 hrs by annexin V-FITC/7-AAD staining-based flow cytometric analysis; format: functional, cell-based
SK-BR-3 [26] = assay: Induction of apoptosis in human SKBR3 cells overexpressing ErbB in complete medium assessed as late apoptotic/necrotic cells at 50 to 75 uM after 72 hrs by annexin V-FITC/7-AAD staining-based flow cytometric analysis; format: functional, cell-based
[27] = Cell cycle arrest in human SKBR3 cells assessed as decrease in accumulation at G0/G1 phase at 50 to 75 uM after 36 hrs by propidium iodide staining-based flow cytometric analysis; format: functional; conditions: SK-BR-3
[28] = Cell cycle arrest in human SKBR3 cells assessed as accumulation at G2/M phase at 50 to 75 uM after 36 hrs by propidium iodide staining-based flow cytometric analysis relative to control; format: functional; conditions: SK-BR-3

Receptor tyrosine-protein kinase erbB-2 (Homo sapiens), sequence (P04626 whole entry): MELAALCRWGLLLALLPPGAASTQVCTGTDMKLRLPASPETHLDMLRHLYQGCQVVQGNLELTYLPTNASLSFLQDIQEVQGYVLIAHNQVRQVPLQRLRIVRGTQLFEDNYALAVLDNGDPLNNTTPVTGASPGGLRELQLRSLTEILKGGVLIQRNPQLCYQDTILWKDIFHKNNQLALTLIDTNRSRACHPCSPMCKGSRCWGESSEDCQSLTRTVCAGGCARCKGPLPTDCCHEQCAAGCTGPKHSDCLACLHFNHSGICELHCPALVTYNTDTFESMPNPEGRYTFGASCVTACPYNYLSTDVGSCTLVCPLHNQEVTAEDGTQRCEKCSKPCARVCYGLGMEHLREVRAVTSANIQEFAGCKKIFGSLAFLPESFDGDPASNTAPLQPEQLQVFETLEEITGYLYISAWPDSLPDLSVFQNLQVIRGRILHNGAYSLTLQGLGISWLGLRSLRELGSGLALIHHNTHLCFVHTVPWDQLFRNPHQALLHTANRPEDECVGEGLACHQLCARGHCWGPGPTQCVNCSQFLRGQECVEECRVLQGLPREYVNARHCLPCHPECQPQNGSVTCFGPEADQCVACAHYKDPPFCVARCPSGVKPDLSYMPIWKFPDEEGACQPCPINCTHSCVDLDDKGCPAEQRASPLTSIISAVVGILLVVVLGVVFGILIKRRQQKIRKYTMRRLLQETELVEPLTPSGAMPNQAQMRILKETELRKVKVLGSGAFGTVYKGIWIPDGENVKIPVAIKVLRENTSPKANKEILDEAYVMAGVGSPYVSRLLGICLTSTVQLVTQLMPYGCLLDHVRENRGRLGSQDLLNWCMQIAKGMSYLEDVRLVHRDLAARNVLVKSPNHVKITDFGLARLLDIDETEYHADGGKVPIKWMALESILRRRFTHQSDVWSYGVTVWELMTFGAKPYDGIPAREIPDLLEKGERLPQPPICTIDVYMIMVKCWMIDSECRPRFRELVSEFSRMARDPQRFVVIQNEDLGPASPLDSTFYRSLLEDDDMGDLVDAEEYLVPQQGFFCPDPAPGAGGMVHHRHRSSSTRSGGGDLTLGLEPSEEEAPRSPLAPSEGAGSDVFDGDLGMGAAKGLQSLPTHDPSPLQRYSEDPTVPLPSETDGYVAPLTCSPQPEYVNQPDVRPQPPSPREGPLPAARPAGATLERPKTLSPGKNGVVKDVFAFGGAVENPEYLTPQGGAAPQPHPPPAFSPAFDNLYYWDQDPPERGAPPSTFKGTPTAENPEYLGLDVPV

| Structure (SMILES) | EC50 (A-431 [2]) | Activity (A-431 [3]) | Ratio EC50 (A-431 [4]) | EC50 (A-431 [6]) | EC50 [7] | EC50 [8] | Activity [13] | Activity (SK-BR-3 [14]) | Activity (A-431 [20]) | Ratio EC50 (SK-BR-3 [22]) | also measured |
| --- | --- | --- | --- | --- | --- | --- | --- | --- | --- | --- | --- |
| O=C(O[C@@H]1Cc2c(O)cc(O)cc2O[C@@H]1c1cc(O)c(O)c(O)c1)c1cc(O)c(O)c(O)c1 [EPIGALOCATECHIN GALLATE] | 266 µM | 30% | 2 | 38 µM | 195 µM | 100 µM | 30% | Active | Active | 2 | Activity [1]: inactive; Activity (A-431 [5]): Active; Activity (A-431 [9]): 80%; inhibition [10]: 47%; Activity [11]: Active; Activity [12]: Active; Activity (A-431 [15]): inactive; Activity (SK-BR-3 [16]): 40%; Activity [17]: inactive; Activity [18]: Active; Activity (A-431 [19]): inactive; Activity (A-431 [21]): inactive |
| O=c1c(-c2ccc(O)cc2)coc2cc(O)cc(O)c12 [GENISTEIN] | 278 µM | inactive | 2 | 108 µM | 403 µM | 97 µM | inactive | inactive | inactive | 2 | Activity (A-431 [23]): Active; Activity (A-431 [24]): Active; Activity (A-431 [25]): Active; Activity (SK-BR-3 [26]): inactive; Activity [27]: Active; Activity [28]: 50% |
